Results published in ChEMBL document CHEMBL6078611, “A potent GPX4 degrader to induce ferroptosis in HT1080 cells” (Eur J Med Chem, 2024).
Each block holds one compound with its values, some of them ahead of it. Active and inactive are the calls of the source. The rule behind the calls is not given here.

Columns and labels:
[1] = target: T1, Baculoviral IAP repeat-containing protein 2/Phospholipid hydroperoxide glutathione peroxidase GPX4 (Homo sapiens, UniProt Q13490+P36969); assay: Protac activity at cIAP/GPX4 in human HT-1080 cells assessed as degradation of GPX4 at 3 uM incubated for 4 hrs by Western blot analysis; format: cell-based
Target sequence in this assay (P36969 whole entry, looked up): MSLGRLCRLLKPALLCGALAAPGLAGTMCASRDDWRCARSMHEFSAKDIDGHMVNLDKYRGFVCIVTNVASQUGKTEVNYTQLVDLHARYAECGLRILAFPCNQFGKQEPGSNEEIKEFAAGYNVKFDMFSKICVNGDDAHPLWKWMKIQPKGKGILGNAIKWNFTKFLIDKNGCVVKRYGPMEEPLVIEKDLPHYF
Target sequence in this assay (Q13490 whole entry, looked up): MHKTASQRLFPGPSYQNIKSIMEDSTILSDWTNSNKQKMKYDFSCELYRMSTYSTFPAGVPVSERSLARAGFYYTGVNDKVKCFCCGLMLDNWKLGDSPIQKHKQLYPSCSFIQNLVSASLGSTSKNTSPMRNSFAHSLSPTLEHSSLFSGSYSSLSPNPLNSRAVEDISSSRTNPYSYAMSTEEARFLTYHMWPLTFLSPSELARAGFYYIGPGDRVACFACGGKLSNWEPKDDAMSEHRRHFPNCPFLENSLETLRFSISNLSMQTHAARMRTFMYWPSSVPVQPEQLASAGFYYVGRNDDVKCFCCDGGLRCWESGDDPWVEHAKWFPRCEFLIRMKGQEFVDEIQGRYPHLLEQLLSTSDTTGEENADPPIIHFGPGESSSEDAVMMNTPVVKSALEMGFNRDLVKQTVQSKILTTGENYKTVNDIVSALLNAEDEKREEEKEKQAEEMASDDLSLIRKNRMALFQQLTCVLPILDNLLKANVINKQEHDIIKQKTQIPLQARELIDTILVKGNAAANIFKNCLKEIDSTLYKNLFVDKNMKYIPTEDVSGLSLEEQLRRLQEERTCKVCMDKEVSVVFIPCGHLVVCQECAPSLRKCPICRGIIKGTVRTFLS

[2] = Cytotoxicity against HEK293T cells assessed as reduction in cell viability incubated for 48 hrs by CCK-8 assay; format: toxicity, cell-based, HEK-293T; settings: human
HT-1080 [3] = assay: Antiproliferative activity against human HT-1080 cells assessed as reduction in cell viability incubated for 48 hrs by CCK-8 assay; format: functional, cell-based; settings: HT-1080, 48 h
HT-1080 [4] = assay: Induction of ferroptosis in human HT-1080 cells assessed as lipid peroxide accumulation at 10 uM in presence of Fer-1 by BODIPY 581/591C11 staining based analysis; format: functional, cell-based
HT-1080 [5] = assay: Induction of ferroptosis in human HT-1080 cells assessed as lipid peroxide accumulation at 10 uM in presence of FeCl2 by BODIPY 581/591C11 staining based analysis; format: functional, cell-based
HT-1080 [6] = assay: Antiproliferative activity against human HT-1080 cells assessed as reduction in cell viability at 7.5 uM incubated for 48 hrs in presence of DFOM by CCK-8 assay; format: functional, cell-based
[7] = target: T1, Baculoviral IAP repeat-containing protein 2/Phospholipid hydroperoxide glutathione peroxidase GPX4; assay: Protac activity at cIAP/GPX4 in human HT-1080 cells assessed as degradation of GPX4 at 5 uM measured upto 12 hrs after compound washout by Western blot analysis; format: cell-based
Target sequence in this assay (P36969 whole entry, looked up): as the sequence (P36969 whole entry, looked up) above
Target sequence in this assay (Q13490 whole entry, looked up): as the sequence (Q13490 whole entry, looked up) above

HT-1080 [8] = assay: Antiproliferative activity against human HT-1080 cells assessed as reduction in cell viability at 7.5 uM incubated for 48 hrs in presence of NAC by CCK-8 assay; format: functional, cell-based
HT-1080 [9] = assay: Induction of ferroptosis in human HT-1080 cells assessed as lipid peroxide accumulation by BODIPY 581/591C11 staining based analysis; format: functional, cell-based; settings: dose 0.6-10 µM
[10] = target: T1, Baculoviral IAP repeat-containing protein 2/Phospholipid hydroperoxide glutathione peroxidase GPX4; assay: Protac activity at cIAP/GPX4 in human HT-1080 cells assessed as degradation of GPX4 at 5 uM by Western blot analysis; format: cell-based; settings: time 12-72 hrs
Target sequence in this assay (P36969 whole entry, looked up): as the sequence (P36969 whole entry, looked up) above
Target sequence in this assay (Q13490 whole entry, looked up): as the sequence (Q13490 whole entry, looked up) above

Mitochondrial membrane [11] = assay: Induction of mitochondrial membrane potential loss in human HT-1080 cells at 10 uM incubated for 48 hrs in presence of DFOM by JC-1 staining based flow cytometry analysis; format: cell membranes
HT-1080 [12] = assay: Antiproliferative activity against human HT-1080 cells assessed as induction of cell death incubated for 48 hrs in presence of Z-VAD-FMK by CCK-8 assay; format: functional, cell-based
[13] = target: T1, Baculoviral IAP repeat-containing protein 2/Phospholipid hydroperoxide glutathione peroxidase GPX4; assay: Protac activity at cIAP/GPX4 in human HT-1080 cells assessed as degradation of GPX4 at 5 uM preincubated with MLN4924 for 4 hrs followed by compound addition and measured after 48 hrs by Western blot analysis; format: cell-based
Target sequence in this assay (P36969 whole entry, looked up): as the sequence (P36969 whole entry, looked up) above
Target sequence in this assay (Q13490 whole entry, looked up): as the sequence (Q13490 whole entry, looked up) above

HT-1080 [14] = assay: Induction of ferroptosis in human HT-1080 cells assessed as lipid peroxide accumulation at 10 uM in presence of DFOM by BODIPY 581/591C11 staining based analysis; format: functional, cell-based
HT-1080 [15] = assay: Induction of ferroptosis in human HT-1080 cells assessed as lipid peroxide accumulation at 10 uM in presence of NAC by BODIPY 581/591C11 staining based analysis; format: functional, cell-based
Mitochondrial membrane [16] = assay: Induction of mitochondrial membrane potential loss in human HT-1080 cells incubated for 48 hrs by JC-1 staining based flow cytometry analysis; format: cell membranes; settings: dose 0.6-10 µM
HT-1080 [17] = assay: Synergistic antiproliferative activity against human HT-1080 cells assessed as induction of cell death at 3.75 uM incubated for 48 hrs in presence of FeCl2 by CCK-8 assay; format: functional, cell-based
[18] = target: T1, Baculoviral IAP repeat-containing protein 2/Phospholipid hydroperoxide glutathione peroxidase GPX4; assay: Protac activity at cIAP/GPX4 in human HT-1080 cells assessed as degradation of GPX4 at 5 uM preincubated with MG132 for 4 hrs followed by compound addition and measured after 48 hrs by Western blot analysis; format: cell-based
Target sequence in this assay (P36969 whole entry, looked up): as the sequence (P36969 whole entry, looked up) above
Target sequence in this assay (Q13490 whole entry, looked up): as the sequence (Q13490 whole entry, looked up) above

HEK-293T = assay: Cytotoxicity against HEK293T cells assessed as reduction in cell viability at 40 uM incubated for 48 hrs by CCK-8 assay; format: toxicity, cell-based; settings: human
[19] = target: T1, Baculoviral IAP repeat-containing protein 2/Phospholipid hydroperoxide glutathione peroxidase GPX4; assay: Protac activity at cIAP/GPX4 in human HT-1080 cells assessed as degradation of GPX4 at 10 uM incubated for 48 hrs by Western blot analysis relative to control; format: cell-based
Target sequence in this assay (P36969 whole entry, looked up): as the sequence (P36969 whole entry, looked up) above
Target sequence in this assay (Q13490 whole entry, looked up): as the sequence (Q13490 whole entry, looked up) above

[20] = target: T1, Baculoviral IAP repeat-containing protein 2/Phospholipid hydroperoxide glutathione peroxidase GPX4; assay: Protac activity at cIAP/GPX4 in human HT-1080 cells assessed as degradation of GPX4 at 5 uM preincubated with RSL3 for 4 hrs followed by compound addition and measured after 48 hrs by Western blot analysis; format: cell-based
[21] = target: T1, Baculoviral IAP repeat-containing protein 2/Phospholipid hydroperoxide glutathione peroxidase GPX4; assay: Protac activity at cIAP/GPX4 in human HT-1080 cells assessed as degradation of GPX4 at 5 uM preincubated with cIAP ligand B4 for 4 hrs followed by compound addition and measured after 48 hrs by Western blot analysis; format: cell-based
Mitochondrial membrane [22] = assay: Induction of mitochondrial membrane potential loss in human HT-1080 cells at 10 uM incubated for 48 hrs in presence of NAC by JC-1 staining based flow cytometry analysis; format: cell membranes
HT-1080 [23] = assay: Antiproliferative activity against human HT-1080 cells assessed as reduction in cell viability at 7.5 uM incubated for 48 hrs in presence of Fer-1 by CCK-8 assay; format: functional, cell-based
[24] = target: T1, Baculoviral IAP repeat-containing protein 2/Phospholipid hydroperoxide glutathione peroxidase GPX4; assay: Protac activity at cIAP/GPX4 in human HT-1080 cells assessed as degradation of GPX4 at 5 uM preincubated with chloroquine for 4 hrs followed by compound addition and measured after 48 hrs by Western blot analysis; format: cell-based
[25] = target: T1, Baculoviral IAP repeat-containing protein 2/Phospholipid hydroperoxide glutathione peroxidase GPX4; assay: Protac activity at cIAP/GPX4 in human HT-1080 cells assessed as degradation of GPX4 incubated for 48 hrs by Western blot analysis; format: cell-based
Target sequence in this assay (Q13490 whole entry): as the sequence (Q13490 whole entry, looked up) above
Target sequence in this assay (P36969 whole entry): as the sequence (P36969 whole entry, looked up) above

HT-1080 [26] = assay: Protac activity at MDM2/GPX4 in human HT-1080 cells assessed as degradation of GPX4 at 10 uM by Western blot analysis relative to control; format: cell-based

Activity [1]: inactive | IC50 (HT-1080 [3]): 1.55 µM
Compound: COC(=O)c1ccc([C@H]2c3[nH]c4ccccc4c3C[C@H](C(=O)OC)N2C(=O)CCl)cc1
IC50 at 48 h [2]: 10.8 µM

Activity [7]: Active | Activity [10]: Time-dependent-effect | Activity (Mitochondrial membrane [11]): inactive | Activity [13]: inactive | IC50 (HT-1080 [3]): 2.37 µM | Activity (Mitochondrial membrane [16]): Dose-dependent-effect | Activity [18]: inactive | Emax [19]: 85% | Activity [20]: inactive | Activity [21]: inactive | Activity (Mitochondrial membrane [22]): inactive | Activity [24]: inactive | DC50 [25]: 1.68 µM
Compound: COC(=O)[C@H](CC(C)C)NC(=O)[C@@H](O)[C@@H](Cc1ccccc1)NC(=O)CCCCCCCn1cc(CNC(=O)c2ccc([C@H]3c4[nH]c5ccccc5c4C[C@H](C(=O)OC)N3C(=O)CCl)cc2)nn1
Activity (HT-1080 [4]): inactive | Activity (HT-1080 [5]): inactive | Activity (HT-1080 [6]): inactive | Activity (HT-1080 [8]): inactive | Activity (HT-1080 [9]): Dose-dependent-effect | Activity (HT-1080 [12]): Active | Activity (HT-1080 [14]): inactive | Activity (HT-1080 [15]): inactive | Activity (HT-1080 [17]): Active | Activity (HEK-293T): Toxic | Activity (HT-1080 [23]): inactive

Emax [19]: 75% | DC50 [25]: 4.22 µM
Compound: COC(=O)c1ccc([C@H]2c3[nH]c4ccccc4c3C[C@H](C(=O)NCc3cn(CCCCCC(=O)N[C@H](Cc4ccccc4)[C@H](O)C(=O)N[C@@H](CC(C)C)C(=O)OC)nn3)N2C(=O)CCl)cc1

Compound: COC(=O)[C@H]1Cc2c([nH]c3ccccc23)[C@H](c2ccc(C(=O)NCc3cn(CCOCCNC(=O)CN4CCN(C(=O)N5C(c6ccc(OC)cc6OC(C)C)=N[C@H](c6ccc(Cl)cc6)[C@@H]5c5ccc(Cl)cc5)CC4=O)nn3)cc2)N1C(=O)CCl
Activity (HT-1080 [26]): 60%
